Tested on: human red blood cells
Assay: Hemolytic activity on heparinized whole blood
Type: cell-based
Conditions: 0- to 14-day incubation, all dilutions examined
Protocol: The hemolytic activity of A. paucinervis pomel extract on blood cells was examined, and compared with the ability of Triton-X to lyse these cells.
To perform these studies, heparinized-whole blood was incubated with dilutions of Triton-X-100 (0-1%) or 5× (4.4 mg/ml) A. paucinervis pomel extract for 40 minutes at room temperature. Plasma was collected after centrifugation at 1200×g for 5 minutes and diluted 1/20 with DPBS. The absorbance at 560 nm of 100 μl of each diluted plasma sample was measured. In a second experiment, the effects of incubating whole blood with dilutions of 5× (4.4 mg/ml) A. paucinervis pomel extract for 0, 3, 7 and 14 days was assessed. Experimental results are shown in FIG. 5A (cells treated with A. paucinervis pomel extract) and FIG. 5B (cells treated with Triton-X-100).

Triton-X
hemolytic activity on blood cells: toxic to blood cells

From patent US8003137B2, “Extracts of Aristolochia paucinervis pomel and uses thereof” (FasTrack Pharmaceuticals, Inc., priority 2008, dated 2011)
